“And” between values parts separate entries of the source, which are not always exact repeats. Identical values can stand only once.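 The compound was tested at five concentrations on cells cultured in 96-well plates, with a 48-hour exposure period. Here, GI50 denotes the concentration required for 50% inhibition of growth. TGI marks complete inhibition of growth.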
Key:
Assay in all cases: inhibition of tumour cell growth, NCI panel, 48 h
DU-145 prostate = tested on: DU-145 prostate
HL-60(TB) leukemia = tested on: HL-60(TB) leukemia
HOP-62 NSCLC = tested on: HOP-62 NSCLC
K-562 leukemia = tested on: K-562 leukemia
KM12 colon = tested on: KM12 colon
M14 melanoma = tested on: M14 melanoma
NCI-H522 lung = tested on: NCI-H522 lung
RXF 393 renal = tested on: RXF 393 renal
SF-268 CNS = tested on: SF-268 CNS
SK-MEL-5 melanoma = tested on: SK-MEL-5 melanoma

SMILES	GI50 (DU-145 prostate)	TGI (DU-145 prostate)	TGI (HL-60(TB) leukemia)	GI50 (HOP-62 NSCLC)	TGI (HOP-62 NSCLC)	GI50 (K-562 leukemia)	TGI (K-562 leukemia)	GI50 (KM12 colon)	TGI (KM12 colon)	GI50 (M14 melanoma)	TGI (M14 melanoma)	GI50 (NCI-H522 lung)	TGI (NCI-H522 lung)	GI50 (RXF 393 renal)	TGI (RXF 393 renal)	GI50 (SF-268 CNS)	TGI (SF-268 CNS)	GI50 (SK-MEL-5 melanoma)	TGI (SK-MEL-5 melanoma)	GI50 (HL-60(TB) leukemia)
COc1ccc2nc3cc([N+](=O)[O-])ccc3c(NNc3ccccc3)c2c1	19.7 µM	77.8 µM and > 100 µM	59.8 µM and > 84 µM	13.1 µM	29.7 µM and > 100 µM	3.49 µM	29.4 µM and > 100 µM	6.25 µM	19.6 µM and 32.4 µM	24.2 µM	75.2 µM and > 100 µM	2.4 µM	18.5 µM and 50.9 µM	11.8 µM	27.6 µM and > 100 µM	7.35 µM	30.8 µM and > 100 µM	13.2 µM	27.3 µM and 40.7 µM	
Clc1ccc2ncc(-c3cccc(NC4CNC4)n3)n2c1	4.58 µM	> 100 µM	42.2 µM	5.98 µM	65.4 µM	8.9 µM	> 100 µM	0.686 µM	> 100 µM	8.87 µM	25.5 µM	6.13 µM	27.9 µM	1.45 µM	11.6 µM	8.7 µM	33 µM	16.1 µM	76.1 µM	4.54 µM
O=c1c2ccccc2nc(-c2ccccc2Cl)n1-c1nnc(C(F)(F)F)s1	5.03 µM	> 100 µM	8.51 µM	6.09 µM	29.7 µM	3.77 µM	> 100 µM	3.68 µM	14.1 µM	4.17 µM	23.7 µM	2.43 µM	8.25 µM	2.77 µM	14.4 µM	4.36 µM	> 100 µM	1.99 µM	4.91 µM	2.38 µM
CN1CCN(c2ccc(NC(=O)c3cncnc3Nc3ccc(OCc4cccc(F)c4)c(Cl)c3)cc2)CC1	4.9 µM	> 50 µM	3.44 µM	2.53 µM	16.1 µM	0.799 µM	1.83 µM	2.21 µM	> 50 µM	0.895 µM	1.71 µM	1.14 µM	3.28 µM	0.956 µM	1.9 µM	4.91 µM	15.9 µM	1.55 µM	5.2 µM	1.3 µM
CCOC(=O)/C(C#N)=C1\SS/C(=C(/C#N)C(=O)OCC)S1	18.2 µM	33.6 µM	63 µM	26.1 µM	86.7 µM	7.99 µM	> 100 µM	20.1 µM	41.3 µM	17 µM	35.9 µM	2.47 µM	7.59 µM	13.3 µM	26.4 µM	20.5 µM	41 µM	32 µM	> 100 µM	22.6 µM
CCCCN=C(N)c1ccc(N2CCCN(c3ccc(C(N)=NCCCC)cc3)CC2)cc1	25.1 µM	> 100 µM	0.159 µM	15.8 µM	> 90.1 µM	3.69 µM	> 100 µM	5.72 µM	47.8 µM	43.1 µM	> 100 µM	11.8 µM	> 100 µM		> 68.3 µM	8.53 µM	> 100 µM	5.04 µM	21.7 µM	
ClCc1ccc(Cn2cnc3c(Cl)ncnc32)cc1	7.3 µM	25.5 µM	23.1 µM	11 µM	23.7 µM	15.4 µM	> 63 µM	10.3 µM	30.2 µM	9.84 µM	19 µM	11.5 µM	75.7 µM	13 µM	30.4 µM	6.03 µM	16.5 µM	11.7 µM	35.9 µM	10.1 µM
COc1ccc(Cn2cc3c(c2)-c2oncc2CC3)cc1OC	0.163 µM	0.544 µM	0.439 µM	0.259 µM	> 50 µM	0.163 µM	> 16.6 µM	0.18 µM	1.27 µM	0.154 µM	16 µM	0.146 µM	0.677 µM	0.173 µM		0.43 µM	> 50 µM	0.229 µM	1.7 µM	0.126 µM
Cc1ccc(NC(=O)Nc2c(Cl)cccc2Cl)cn1	16.2 µM	76.6 µM	29.7 µM	8.33 µM	> 100 µM	4.03 µM	> 100 µM	4.37 µM	> 100 µM	12 µM	> 100 µM	12.5 µM	44 µM	5.85 µM	30.9 µM	14.5 µM	> 100 µM	5.06 µM	> 100 µM	4.23 µM
Nc1cc(C(F)(F)F)c(-c2cc(N3CCOCC3)nc(N3CCOCC3)n2)cn1	1.22 µM and 1.79 µM	9.96 µM and > 33.1 µM	5.45 µM and 9.35 µM	0.385 µM and 0.793 µM	4.31 µM and 4.87 µM	0.875 µM and 0.58 µM	> 100 µM	1.39 µM and 1.22 µM	> 10 µM and 8.55 µM	0.669 µM and 0.644 µM	4.04 µM and 3.88 µM	0.504 µM and 0.29 µM	3.93 µM and 1.64 µM	0.561 µM and 0.65 µM	2.83 µM and 3.26 µM	0.925 µM and 1.42 µM	> 9.53 µM and 7.1 µM	0.797 µM and 0.587 µM	3.05 µM and 2.56 µM	0.615 µM and 0.455 µM
COc1ccc(C(=O)O[C@H]2[C@H](O[C@H]3[C@@H](O)COC(O[C@H]4C[C@H]5[C@@H]6CC=C7C[C@@H](O)CC[C@]7(C)[C@H]6CC[C@]5(C)[C@H]4[C@H](C)C(=O)CCC(C)C)[C@@H]3OC(C)=O)OC[C@@H](O)[C@@H]2O)c(C)c1 (stereo partly specified)	1.26 µM	36.4 µM	28.2 µM	< 0.01 µM	7.51 µM	< 0.01 µM	13.9 µM	0.0674 µM	21.3 µM	< 0.01 µM	0.0102 µM	0.0114 µM	0.607 µM	< 0.01 µM	< 0.01 µM	< 0.01 µM	3.4 µM	< 0.01 µM	0.0141 µM	0.0133 µM
O=C(Nc1ccccc1C(F)(F)F)c1ccc(NC2=C(Cl)C(=O)N(Cc3ccccc3)C2=O)cc1	34.2 µM	> 100 µM	17.6 µM	21.5 µM	43.1 µM	5.65 µM	80.5 µM	> 100 µM	> 100 µM	51.6 µM	> 100 µM	40.3 µM	> 100 µM	13.8 µM	37.7 µM	24.3 µM	94.6 µM	48.7 µM	> 100 µM	2.96 µM
